Values of other authors, collected in patent publication US20060094692A1, “Pharmaceutical formulations of camptothecins and process for making same” (BioNumerik Pharmaceuticals, Inc., priority 2004, published 2006).

Conditions: fraction of the potency of the lactone form

## CC[C@@](O)(C(=O)O)c1cc2n(c(=O)c1CO)Cc1cc3ccccc3nc1-2 [carboxylate form of CPT]
  antitumor potency relative to the lactone form of CPT: approximately one-tenth or less
